Laboratory results from paper PMC5218480 (PLoS ONE, 2017).

System: MV-4-11 cells
Assay: Gene expression microarray analysis (Affymetrix PrimeView) and GSEA
Format: cell-based, human
Parameters: RFU PODN (11730768_x_at) / Fold change /veh PODN (11730768_x_at) / RFU LINC00158 (11744669_a_at) / Fold change /veh LINC00158 (11744669_a_at) / RFU DUSP10 (11751237_a_at) / Fold change /veh DUSP10 (11751237_a_at) / RFU ID3 (11757404_x_at) / Fold change /veh ID3 (11757404_x_at) / RFU PLEKHG5 (11737974_s_at) / Fold change /veh PLEKHG5 (11737974_s_at) / RFU LRRC4B (11730491_at) / Fold change /veh LRRC4B (11730491_at) / RFU GIMAP4 (11747438_a_at) / Fold change /veh GIMAP4 (11747438_a_at) / RFU KRT8 (11758183_x_at) / Fold change /veh KRT8 (11758183_x_at) / RFU CNN1 (11734310_a_at) / Fold change /veh CNN1 (11734310_a_at) / RFU VPS37D (11726825_at) / Fold change /veh VPS37D (11726825_at) / RFU C10orf10 (11716522_x_at) / Fold change /veh C10orf10 (11716522_x_at) / RFU KIR2DL2 /// KIR2DL4 /// KIR2DL5A /// KIR2DL5B /// KIR2DS1 /// KIR2DS2 /// KIR2DS3 /// KIR2DS4 /// KIR3DL3 /// KIR3DL3 /// KIR3DS1 (11738374_at) / Fold change /veh KIR2DL2 /// KIR2DL4 /// KIR2DL5A /// KIR2DL5B /// KIR2DS1 /// KIR2DS2 /// KIR2DS3 /// KIR2DS4 /// KIR3DL3 /// KIR3DL3 /// KIR3DS1 (11738374_at) / RFU C1QL1 (11718748_at) / Fold change /veh C1QL1 (11718748_at) / RFU TMPRSS4 (11747572_a_at) / Fold change /veh TMPRSS4 (11747572_a_at) / RFU HAMP (11756126_x_at) / Fold change /veh HAMP (11756126_x_at) / RFU RNFT2 (11725882_a_at) / Fold change /veh RNFT2 (11725882_a_at) / RFU NR4A2 (11747474_a_at) / Fold change /veh NR4A2 (11747474_a_at) / RFU ABCC12 (11746883_a_at) / Fold change /veh ABCC12 (11746883_a_at) / RFU TMEM136 (11760407_x_at) / Fold change /veh TMEM136 (11760407_x_at) / RFU CLDN22 /// WWC2 (11732394_at) / Fold change /veh CLDN22 /// WWC2 (11732394_at) / RFU HLA-DPB1 (11760878_x_at) / Fold change /veh HLA-DPB1 (11760878_x_at) / RFU SPINT1 (11716480_a_at) / Fold change /veh SPINT1 (11716480_a_at) / RFU GAP43 (11754022_s_at) / Fold change /veh GAP43 (11754022_s_at) / RFU A4GNT (11735810_at) / Fold change /veh A4GNT (11735810_at) / RFU PRB3 (11715151_x_at) / Fold change /veh PRB3 (11715151_x_at) / RFU TUBB4B (11761932_at) / Fold change /veh TUBB4B (11761932_at) / RFU CAPN14 (11732068_a_at) / Fold change /veh CAPN14 (11732068_a_at) / RFU TMCC2 (11721928_a_at) / Fold change /veh TMCC2 (11721928_a_at) / RFU IRGQ (11745062_a_at) / Fold change /veh IRGQ (11745062_a_at) / RFU FAM174B (11720279_a_at) / Fold change /veh FAM174B (11720279_a_at) / RFU TMPRSS4 (11748680_a_at) / Fold change /veh TMPRSS4 (11748680_a_at) / RFU FAM212B (11763350_a_at) / Fold change /veh FAM212B (11763350_a_at) / RFU PLEKHG5 (11743358_a_at) / Fold change /veh PLEKHG5 (11743358_a_at) / RFU ZSCAN30 (11745921_a_at) / Fold change /veh ZSCAN30 (11745921_a_at) / RFU CMKLR1 (11741424_a_at) / Fold change /veh CMKLR1 (11741424_a_at) / RFU LOC101060620 /// MAPK8IP1 (11723275_at) / Fold change /veh LOC101060620 /// MAPK8IP1 (11723275_at) / RFU SPTSSB (11747773_x_at) / Fold change /veh SPTSSB (11747773_x_at) / RFU PRSS12 (11739890_at) / Fold change /veh PRSS12 (11739890_at) / RFU BIN1 (11741810_x_at) / Fold change /veh BIN1 (11741810_x_at) / RFU WNT11 (11732464_a_at) / Fold change /veh WNT11 (11732464_a_at) / RFU C10orf10 (11716521_a_at) / Fold change /veh C10orf10 (11716521_a_at) / RFU C5orf56 (11738089_at) / Fold change /veh C5orf56 (11738089_at) / RFU CYB561 (11721691_x_at) / Fold change /veh CYB561 (11721691_x_at) / RFU ANKRD19P (11752326_a_at) / Fold change /veh ANKRD19P (11752326_a_at) / RFU OR2T12 /// OR2T33 /// OR2T8 (11738714_s_at) / Fold change /veh OR2T12 /// OR2T33 /// OR2T8 (11738714_s_at) / RFU VCAN (11748164_a_at) / Fold change /veh VCAN (11748164_a_at) / RFU JSRP1 (11732532_at) / Fold change /veh JSRP1 (11732532_at) / RFU KRTAP10-11 (11738290_x_at) / Fold change /veh KRTAP10-11 (11738290_x_at) / RFU MYO3A (11730013_a_at) / Fold change /veh MYO3A (11730013_a_at) / RFU EBF3 (11725865_a_at) / Fold change /veh EBF3 (11725865_a_at) / RFU CAMK2N1 (11719241_x_at) / Fold change /veh CAMK2N1 (11719241_x_at) / RFU C5orf56 (11738088_a_at) / Fold change /veh C5orf56 (11738088_a_at) / RFU OLFML3 (11715873_a_at) / Fold change /veh OLFML3 (11715873_a_at) / RFU LOC100653217 /// NTM (11731650_a_at) / Fold change /veh LOC100653217 /// NTM (11731650_a_at) / RFU MAPK11 (11762145_a_at) / Fold change /veh MAPK11 (11762145_a_at) / RFU FIZ1 (11724087_x_at) / Fold change /veh FIZ1 (11724087_x_at) / RFU OASL (11726364_x_at) / Fold change /veh OASL (11726364_x_at) / RFU SOX15 (11748057_x_at) / Fold change /veh SOX15 (11748057_x_at) / RFU CD79A (11719716_a_at) / Fold change /veh CD79A (11719716_a_at) / RFU HIST1H1D (11736915_at) / Fold change /veh HIST1H1D (11736915_at) / RFU CASKIN2 (11723855_a_at) / Fold change /veh CASKIN2 (11723855_a_at) / RFU LOC730098 (11760151_x_at) / Fold change /veh LOC730098 (11760151_x_at) / RFU OR4N2 (11742367_at) / Fold change /veh OR4N2 (11742367_at) / RFU PRRT2 (11749266_a_at) / Fold change /veh PRRT2 (11749266_a_at) / RFU SNX32 (11753110_a_at) / Fold change /veh SNX32 (11753110_a_at) / RFU CDHR5 (11726645_a_at) / Fold change /veh CDHR5 (11726645_a_at) / RFU RCAN1 (11760418_a_at) / Fold change /veh RCAN1 (11760418_a_at) / RFU FAM167A (11723789_a_at) / Fold change /veh FAM167A (11723789_a_at) / RFU FAM26E (11764081_at) / Fold change /veh FAM26E (11764081_at) / RFU ISYNA1 (11749810_s_at) / Fold change /veh ISYNA1 (11749810_s_at) / RFU ACY1 (11761880_at) / Fold change /veh ACY1 (11761880_at) / RFU 11764098_at / Fold change /veh 11764098_at / RFU SAMD14 (11745864_x_at) / Fold change /veh SAMD14 (11745864_x_at) / RFU NPB (11741838_a_at) / Fold change /veh NPB (11741838_a_at) / RFU TMPRSS6 (11731388_a_at) / Fold change /veh TMPRSS6 (11731388_a_at) / RFU KRTAP10-2 (11738614_at) / Fold change /veh KRTAP10-2 (11738614_at) / RFU ARHGAP8 /// PRR5-ARHGAP8 (11727945_x_at) / Fold change /veh ARHGAP8 /// PRR5-ARHGAP8 (11727945_x_at) / RFU KRTAP5-7 /// NADSYN1 (11734609_at) / Fold change /veh KRTAP5-7 /// NADSYN1 (11734609_at) / RFU RASL12 (11751679_a_at) / Fold change /veh RASL12 (11751679_a_at) / RFU CDKN2B (11736163_a_at) / Fold change /veh CDKN2B (11736163_a_at) / RFU PRF1 (11729649_at) / Fold change /veh PRF1 (11729649_at) / RFU, ZNF638 /// ZNF638-IT1 / Fold change vs veh, ZNF638 /// ZNF638-IT1 / RFU, PANK3 / Fold change vs veh, PANK3 / RFU, SH3YL1 / Fold change vs veh, SH3YL1 / RFU, ZEB2 / Fold change vs veh, ZEB2 / RFU, NRIP1 / Fold change vs veh, NRIP1 / RFU, PTTG1IP / Fold change vs veh, PTTG1IP / RFU, CAPN2 / Fold change vs veh, CAPN2 / RFU, MED14 / Fold change vs veh, MED14 / RFU, SNORA58 / Fold change vs veh, SNORA58 / RFU, C1orf63 / Fold change vs veh, C1orf63 / RFU, LRRFIP1 / Fold change vs veh, LRRFIP1 / RFU, NDUFAF7 / Fold change vs veh, NDUFAF7 / RFU, SLC12A2 / Fold change vs veh, SLC12A2 / RFU, IBTK / Fold change vs veh, IBTK / RFU, ESF1 / Fold change vs veh, ESF1 / Fold change vs veh, TMEM50B / RFU, TAOK1 / Fold change vs veh, TAOK1 / RFU, ACBD3 / Fold change vs veh, ACBD3 / RFU, TMA16 / Fold change vs veh, TMA16 / RFU, RWDD3 / Fold change vs veh, RWDD3 / RFU, BCAT1 / Fold change vs veh, BCAT1 / RFU, EDEM3 / Fold change vs veh, EDEM3 / RFU, TMEM33 / Fold change vs veh, TMEM33 / RFU, WDR75 / Fold change vs veh, WDR75 / RFU, AHCTF1 / Fold change vs veh, AHCTF1 / RFU, TFRC / Fold change vs veh, TFRC / RFU, ZDHHC17 / Fold change vs veh, ZDHHC17 / RFU, NOM1 / Fold change vs veh, NOM1 / RFU, ARL8B / Fold change vs veh, ARL8B / RFU, ZBTB11 / Fold change vs veh, ZBTB11 / RFU, TAMM41 / Fold change vs veh, TAMM41 / RFU, KIAA1704 /// LOC100996395 / Fold change vs veh, KIAA1704 /// LOC100996395 / RFU, ING1 / Fold change vs veh, ING1 / RFU, TRMT61B / Fold change vs veh, TRMT61B / RFU, FUBP3 / Fold change vs veh, FUBP3 / RFU, TP53 / Fold change vs veh, TP53 / RFU, TNKS2 / Fold change vs veh, TNKS2 / RFU, ZFP14 / Fold change vs veh, ZFP14 / RFU, ACTR2 / Fold change vs veh, ACTR2 / RFU, PPP3R1 / Fold change vs veh, PPP3R1 / RFU, PIK3R1 / Fold change vs veh, PIK3R1 / RFU, HNRNPA1 / Fold change vs veh, HNRNPA1 / RFU, RNF170 / Fold change vs veh, RNF170 / RFU, ZNF28 / Fold change vs veh, ZNF28 / RFU, RNGTT / Fold change vs veh, RNGTT / RFU, OGT / Fold change vs veh, OGT / RFU, BRD1 / Fold change vs veh, BRD1 / RFU, MARS / Fold change vs veh, MARS / RFU, ZNF655 / Fold change vs veh, ZNF655 / RFU, FAHD1 / Fold change vs veh, FAHD1 / RFU, BDP1 / Fold change vs veh, BDP1 / RFU, LRRCC1 / Fold change vs veh, LRRCC1 / RFU, ARID1A / Fold change vs veh, ARID1A / RFU, ZNF146 / Fold change vs veh, ZNF146 / RFU, ZNF330 / Fold change vs veh, ZNF330 / RFU, GPN3 / Fold change vs veh, GPN3 / RFU, C9orf123 / Fold change vs veh, C9orf123 / RFU, N4BP2L2 / Fold change vs veh, N4BP2L2 / RFU, ARFIP1 / Fold change vs veh, ARFIP1 / RFU, FAM179B / Fold change vs veh, FAM179B / RFU, BCL10 / Fold change vs veh, BCL10 / RFU, UHRF1BP1L / Fold change vs veh, UHRF1BP1L / RFU, BET1 / Fold change vs veh, BET1 / RFU, CNOT2 / Fold change vs veh, CNOT2 / RFU, ZNF268 / Fold change vs veh, ZNF268 / Fold change vs veh, ZNF507 / RFU, DGCR2 / Fold change vs veh, DGCR2 / RFU, WDSUB1 / Fold change vs veh, WDSUB1 / Fold change vs veh, HSP90B1 /// MIR3652 / RFU, ADSS / Fold change vs veh, ADSS / RFU, GK / Fold change vs veh, GK / RFU, ZNF148 / Fold change vs veh, ZNF148 / RFU, TAF9 / Fold change vs veh, TAF9 / RFU, SLC1A5 / Fold change vs veh, SLC1A5 / RFU, SLMO2 / Fold change vs veh, SLMO2 / RFU, ABCC4 / Fold change vs veh, ABCC4 / RFU, LOC101060439 /// RAP1B / Fold change vs veh, LOC101060439 /// RAP1B / RFU, RFX7 / Fold change vs veh, RFX7 / RFU, GTPBP10 / Fold change vs veh, GTPBP10 / RFU, CNEP1R1 / Fold change vs veh, CNEP1R1 / RFU, BIVM-ERCC5 /// ERCC5 / Fold change vs veh, BIVM-ERCC5 /// ERCC5 / RFU, ILF3 / Fold change vs veh, ILF3 / RFU 11762660_at / Fold change /veh 11762660_at / RFU VCAN (11757783_s_at) / Fold change /veh VCAN (11757783_s_at) / RFU DDX43 (11728927_at) / Fold change /veh DDX43 (11728927_at) / RFU KRT8 (11758188_x_at) / Fold change /veh KRT8 (11758188_x_at) / RFU NKD1 (11759106_at) / Fold change /veh NKD1 (11759106_at) / RFU SRD5A1 (11742802_a_at) / Fold change /veh SRD5A1 (11742802_a_at) / RFU TPSAB1 /// TPSB2 (11721975_s_at) / Fold change /veh TPSAB1 /// TPSB2 (11721975_s_at) / RFU GSTM3 (11746129_a_at) / Fold change /veh GSTM3 (11746129_a_at) / RFU IL23R (11737362_x_at) / Fold change /veh IL23R (11737362_x_at) / RFU TMEM51 (11727254_a_at) / Fold change /veh TMEM51 (11727254_a_at) / RFU PIWIL2 (11732686_x_at) / Fold change /veh PIWIL2 (11732686_x_at) / RFU ORM1 (11744905_x_at) / Fold change /veh ORM1 (11744905_x_at) / RFU CCDC152 (11743942_at) / Fold change /veh CCDC152 (11743942_at) / RFU ECM1 (11717891_a_at) / Fold change /veh ECM1 (11717891_a_at) / RFU IL23R (11748794_a_at) / Fold change /veh IL23R (11748794_a_at) / RFU TNFAIP8L3 (11732012_x_at) / Fold change /veh TNFAIP8L3 (11732012_x_at) / RFU MBOAT4 (11741988_at) / Fold change /veh MBOAT4 (11741988_at) / RFU 11764193_at / Fold change /veh 11764193_at / RFU TMEM53 (11763286_at) / Fold change /veh TMEM53 (11763286_at) / RFU MAGEB2 (11727129_at) / Fold change /veh MAGEB2 (11727129_at) / RFU TMEM200A (11744735_a_at) / Fold change /veh TMEM200A (11744735_a_at) / RFU CCDC152 (11751479_a_at) / Fold change /veh CCDC152 (11751479_a_at) / RFU FAM211A (11726209_a_at) / Fold change /veh FAM211A (11726209_a_at) / RFU RGS16 (11746705_a_at) / Fold change /veh RGS16 (11746705_a_at) / RFU VCAN (11755009_s_at) / Fold change /veh VCAN (11755009_s_at) / RFU RHOB (11743442_s_at) / Fold change /veh RHOB (11743442_s_at) / RFU RGS16 (11720943_a_at) / Fold change /veh RGS16 (11720943_a_at) / RFU RGS16 (11720944_at) / Fold change /veh RGS16 (11720944_at) / RFU, VPS4B / Fold change vs veh, VPS4B / RFU, CREB1 / Fold change vs veh, CREB1 / RFU, DNAJC13 / Fold change vs veh, DNAJC13 / RFU, GNAQ / Fold change vs veh, GNAQ / RFU, CDK5R1 / Fold change vs veh, CDK5R1 / RFU, ZRANB3 / Fold change vs veh, ZRANB3 / RFU, CUL4A / Fold change vs veh, CUL4A / RFU, CCNY / Fold change vs veh, CCNY / RFU, UFL1 / Fold change vs veh, UFL1 / RFU, COG3 / Fold change vs veh, COG3 / RFU, DIAPH2 / Fold change vs veh, DIAPH2 / RFU, SKA2 / Fold change vs veh, SKA2 / RFU, AFF3 / Fold change vs veh, AFF3 / RFU, LMF1 / Fold change vs veh, LMF1 / RFU, IPO11 / Fold change vs veh, IPO11 / RFU, DFFB / Fold change vs veh, DFFB / RFU, FOXP1 / Fold change vs veh, FOXP1 / RFU, CARD8 / Fold change vs veh, CARD8 / RFU, STRN3 / Fold change vs veh, STRN3 / RFU, ADK / Fold change vs veh, ADK / RFU, RASSF2 / Fold change vs veh, RASSF2 / RFU, WIPF1 / Fold change vs veh, WIPF1 / RFU, LARP1B / Fold change vs veh, LARP1B / RFU, RASA1 / Fold change vs veh, RASA1 / RFU, RB1 / Fold change vs veh, RB1 / RFU, PPFIA1 / Fold change vs veh, PPFIA1 / RFU, MAT2A / Fold change vs veh, MAT2A / RFU, CCT5 / Fold change vs veh, CCT5 / RFU, WDR92 / Fold change vs veh, WDR92 / RFU, CUX1 / Fold change vs veh, CUX1 / RFU, TTC7A / Fold change vs veh, TTC7A / RFU, TMEM135 / Fold change vs veh, TMEM135 / RFU, DEPTOR / Fold change vs veh, DEPTOR / RFU, CPM / Fold change vs veh, CPM / RFU, DNAJB6 / Fold change vs veh, DNAJB6 / RFU, CACNA2D3 / Fold change vs veh, CACNA2D3 / RFU, DTX4 / Fold change vs veh, DTX4 / RFU, TFCP2 / Fold change vs veh, TFCP2 / RFU, GMCL1 /// GMCL1P1 / Fold change vs veh, GMCL1 /// GMCL1P1 / RFU, AEBP2 / Fold change vs veh, AEBP2 / RFU, SNHG1 /// SNORD22 /// SNORD25 /// SNORD26 /// SNORD27 /// SNORD28 /// SNORD29 /// SNORD31 / Fold change vs veh, SNHG1 /// SNORD22 /// SNORD25 /// SNORD26 /// SNORD27 /// SNORD28 /// SNORD29 /// SNORD31 / Fold change (Aza/veh), C12orf56 (ProbeSet 11735607_a_at) / Fold change (ACY-1035/veh), C12orf56 (ProbeSet 11735607_a_at) / Fold change (Aza/veh), FGFR1OP (ProbeSet 11751329_s_at) / Fold change (ACY-1035/veh), FGFR1OP (ProbeSet 11751329_s_at) / Fold change (Aza/veh), VPS36 (ProbeSet 11739960_a_at) / Fold change (ACY-1035/veh), VPS36 (ProbeSet 11739960_a_at) / RFU SYPL1 (11715823_x_at) / Fold change /veh SYPL1 (11715823_x_at) / RFU IGFBP7 (11715501_s_at) / Fold change /veh IGFBP7 (11715501_s_at) / RFU REEP3 (11722064_at) / Fold change /veh REEP3 (11722064_at) / RFU IGLL1 (11728026_x_at) / Fold change /veh IGLL1 (11728026_x_at): dose or concentration left out as unconfirmed
Conditions: MV-4-11 cells, 48 hours

Structure (SMILES): Nc1ccc(-c2cccs2)cc1NC(=O)c1ccc2c(c1)cc(C1CC1)n2CCN1CCOCC1 [ACY-1035]
- RFU SOX15 (11748057_x_at): 11.14 RFU
